The record followed here is PubChem BioAssay (NCI).

SMILES strings stand for the structures. Several values for one entry are separate records, joined by “and”; a condition that tells them apart may be missing. Identical values can stand only once.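 1) Cells in 96-well plates. 2) Compound, 48 h, 5 concentrations. 3) Linear interpolation between surrounding doses. 4) Unreached endpoint = highest concentration. GI50 marks 50% less growth. TGI denotes the concentration required for complete inhibition of growth.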

The first assay deals with HS 578T breast. The assay is described as follows: NCI tumour cell line growth inhibition, 48 h.
For the compound `Cc1ccc(C(=O)Nc2ccc(CN3CCN(C)CC3)c(C(F)(F)F)c2)cc1C#Cc1cnc(N)c2ccc(F)cc12`, the GI50 is 0.301 µM and the TGI is 1.37 µM.
Turning to `CC1(C)CCC(C)(C)c2cc(C(=O)Nc3ccc(C(=O)O)cc3)ccc21`, the TGI was above 46.8 µM.
Take `CC1=C(C(=O)NC2CCCCC2)CC(C(=O)NC2CCCCC2)=C(C)N1`: the TGI is above 100 µM.
For the compound `Cn1cc(C2=C(c3cn(C)c4ccc(N)cc34)C(=O)NC2=O)c2ccccc21`, the GI50 was 5.3 µM and the TGI is above 25 µM.
Take `S=C(N/N=C/c1cc(Cl)cc(Cl)c1)NC12CC3CC(CC(C3)C1)C2`: the GI50 was 2.16 µM and the TGI was found to be 7.41 µM.
Turning to `CCCCN1C(=O)CC2[C@@H]3CCc4cc(OC)ccc4C3CC[C@]2(C)C1=O` (stereo partly drawn), the TGI is above 10 µM.
Still for that read-out and setting: the figure for `Cc1nc(SCC(N)=O)c2sc(=S)n(-c3ccccc3)c2n1` is above 10 µM; for `COc1cc(-c2oc3ccccc3c(=O)c2O)cc(OC)c1OC` it is 98.9 µM; for `CSc1ccc(/C=C2\CNC/C(=C\c3ccc(SC)cc3)C2=O)cc1` it is above 371 µM.
On to `C/C(=N\O)c1ccc(Nc2cc(-n3nnc4ccccc43)nc3ccccc23)cc1`, for which the GI50 is 6.29 µM and the TGI was determined as 20.4 µM.
Taken in the same sequence, the figures for `C[C@]12CC[C@@H]3c4ccc(O)c([N+](=O)[O-])c4CC[C@H]3[C@@H]1CC[C@@H]2NS(=O)(=O)c1ccc(C(F)(F)F)cc1` were 2.14 µM and 6.56 µM.
For `Clc1ccc(COC(Cn2ccnc2)c2ccc(Cl)cc2Cl)cc1` (stereo not drawn), the GI50 was 3.72 µM; the TGI is 22.9 µM and 38.8 µM and 40.5 µM.
Turning to `CC[C@H](C)[C@H](NC(=O)c1cnccn1)C(=O)N(C)[C@H](C[C@@H](OC(C)=O)c1nc(C(=O)N[C@@H](Cc2ccccc2)C[C@H](C)C(=O)OC)cs1)C(C)C`, the GI50 was 0.941 µM and the TGI stood at 10.6 µM.
On to `CC(C)n1c(/C=C/[C@@H](O)C[C@@H](O)CC(=O)O)c(-c2ccc(F)cc2)c2ccccc21`, for which the GI50 was 4.29 µM and 4.73 µM; the TGI was above 100 µM.
On to `CCOc1ccc(NCC2CC/C(=C\C=C\c3ccccc3)C2=O)cc1` (stereo not drawn), for which the TGI was 65.2 µM.

The subject of another assay is SF-539 CNS. In words: NCI tumour cell line growth inhibition, 48 h.
For `Cc1ccc(C(=O)Nc2ccc(CN3CCN(C)CC3)c(C(F)(F)F)c2)cc1C#Cc1cnc(N)c2ccc(F)cc12`, the GI50 was 0.527 µM and the TGI worked out at 1.24 µM.
For the compound `CC1(C)CCC(C)(C)c2cc(C(=O)Nc3ccc(C(=O)O)cc3)ccc21`, the TGI is 30.3 µM.
Still for that read-out and setting: to `CC1=C(C(=O)NC2CCCCC2)CC(C(=O)NC2CCCCC2)=C(C)N1` belongs above 100 µM.
With `Cn1cc(C2=C(c3cn(C)c4ccc(N)cc34)C(=O)NC2=O)c2ccccc21`, the GI50 is 6.14 µM and the TGI was found to be 24.4 µM.
Taken in the same sequence, the figures for `S=C(N/N=C/c1cc(Cl)cc(Cl)c1)NC12CC3CC(CC(C3)C1)C2` were 8.85 µM and above 100 µM.
`CCCCN1C(=O)CC2[C@@H]3CCc4cc(OC)ccc4C3CC[C@]2(C)C1=O` (stereo partly drawn) displayed a TGI above 10 µM.
Still for that read-out and setting: the figure for `Cc1nc(SCC(N)=O)c2sc(=S)n(-c3ccccc3)c2n1` is above 10 µM; for `COc1cc(-c2oc3ccccc3c(=O)c2O)cc(OC)c1OC` it is above 100 µM.
Take `CSc1ccc(/C=C2\CNC/C(=C\c3ccc(SC)cc3)C2=O)cc1`: the GI50 was 15.2 µg/mL; the TGI was 32.7 µM and 43.8 µg/mL.
In the case of `C/C(=N\O)c1ccc(Nc2cc(-n3nnc4ccccc43)nc3ccccc23)cc1`, the GI50 was 19 µM and the TGI worked out at 44.7 µM.
The matching figures for `C[C@]12CC[C@@H]3c4ccc(O)c([N+](=O)[O-])c4CC[C@H]3[C@@H]1CC[C@@H]2NS(=O)(=O)c1ccc(C(F)(F)F)cc1`: 1.77 µM and 3.39 µM.
As for `Clc1ccc(COC(Cn2ccnc2)c2ccc(Cl)cc2Cl)cc1` (stereo not drawn), the GI50 is 4.6 µM; the TGI was 16.4 µM and 38.3 µM and 29.4 µM.
Turning to `CC[C@H](C)[C@H](NC(=O)c1cnccn1)C(=O)N(C)[C@H](C[C@@H](OC(C)=O)c1nc(C(=O)N[C@@H](Cc2ccccc2)C[C@H](C)C(=O)OC)cs1)C(C)C`, the GI50 was 0.779 µM and the TGI came out at 2.09 µM.
For the compound `CC(C)n1c(/C=C/[C@@H](O)C[C@@H](O)CC(=O)O)c(-c2ccc(F)cc2)c2ccccc21`, the GI50 was 25.7 µM and 10.5 µM; the TGI is above 100 µM.
`CCOc1ccc(NCC2CC/C(=C\C=C\c3ccccc3)C2=O)cc1` (stereo not drawn) registered a TGI of 37.8 µM.

A further assay relates to DU-145 prostate. In words: NCI tumour cell line growth inhibition, 48 h.
With `Cc1ccc(C(=O)Nc2ccc(CN3CCN(C)CC3)c(C(F)(F)F)c2)cc1C#Cc1cnc(N)c2ccc(F)cc12`, the GI50 is 0.139 µM and the TGI stood at 0.554 µM.
The compound `CC1(C)CCC(C)(C)c2cc(C(=O)Nc3ccc(C(=O)O)cc3)ccc21` gave a TGI above 73.6 µM.
Same read-out and setting: to `CC1=C(C(=O)NC2CCCCC2)CC(C(=O)NC2CCCCC2)=C(C)N1` belongs above 100 µM.
With `Cn1cc(C2=C(c3cn(C)c4ccc(N)cc34)C(=O)NC2=O)c2ccccc21`, the GI50 was 12.3 µM and the TGI was above 25 µM.
Taken in the same sequence, the figures for `S=C(N/N=C/c1cc(Cl)cc(Cl)c1)NC12CC3CC(CC(C3)C1)C2` were 12.8 µM and above 100 µM.
`CCCCN1C(=O)CC2[C@@H]3CCc4cc(OC)ccc4C3CC[C@]2(C)C1=O` (stereo partly drawn) registered a TGI above 10 µM.
`Cc1nc(SCC(N)=O)c2sc(=S)n(-c3ccccc3)c2n1` registered a TGI above 10 µM.
Same read-out and setting: to `COc1cc(-c2oc3ccccc3c(=O)c2O)cc(OC)c1OC` belongs above 100 µM; to `CSc1ccc(/C=C2\CNC/C(=C\c3ccc(SC)cc3)C2=O)cc1`, above 371 µM.
Take `C/C(=N\O)c1ccc(Nc2cc(-n3nnc4ccccc43)nc3ccccc23)cc1`: the GI50 was 7.7 µM and the TGI came out at 30 µM.
Taken in the same sequence, the figures for `C[C@]12CC[C@@H]3c4ccc(O)c([N+](=O)[O-])c4CC[C@H]3[C@@H]1CC[C@@H]2NS(=O)(=O)c1ccc(C(F)(F)F)cc1` were 2.63 µM and 7.11 µM.
`Clc1ccc(COC(Cn2ccnc2)c2ccc(Cl)cc2Cl)cc1` (stereo not drawn): the GI50 was 5.41 µM; the TGI is 17.8 µM and 30.1 µM and 28.2 µM.
Turning to `CC[C@H](C)[C@H](NC(=O)c1cnccn1)C(=O)N(C)[C@H](C[C@@H](OC(C)=O)c1nc(C(=O)N[C@@H](Cc2ccccc2)C[C@H](C)C(=O)OC)cs1)C(C)C`, the GI50 is 1.23 µM and the TGI was above 33.3 µM.
As to `CC(C)n1c(/C=C/[C@@H](O)C[C@@H](O)CC(=O)O)c(-c2ccc(F)cc2)c2ccccc21`, the GI50 was 24.8 µM and 26.4 µM; the TGI is above 100 µM.
In turn, `CCOc1ccc(NCC2CC/C(=C\C=C\c3ccccc3)C2=O)cc1` (stereo not drawn) showed a TGI above 93.3 µM.

Another assay deals with CCRF-CEM leukemia. In words: NCI tumour cell line growth inhibition, 48 h.
For `Cc1ccc(C(=O)Nc2ccc(CN3CCN(C)CC3)c(C(F)(F)F)c2)cc1C#Cc1cnc(N)c2ccc(F)cc12`, the GI50 was 0.398 µM and the TGI came out at 1.82 µM.
The compound `CC1(C)CCC(C)(C)c2cc(C(=O)Nc3ccc(C(=O)O)cc3)ccc21` had a TGI above 80.8 µM.
`CC1=C(C(=O)NC2CCCCC2)CC(C(=O)NC2CCCCC2)=C(C)N1`: the TGI was above 100 µM.
Regarding `Cn1cc(C2=C(c3cn(C)c4ccc(N)cc34)C(=O)NC2=O)c2ccccc21`, the GI50 was 6.95 µM and the TGI was above 25 µM.
For the compound `S=C(N/N=C/c1cc(Cl)cc(Cl)c1)NC12CC3CC(CC(C3)C1)C2`, the GI50 is above 61.1 µM and the TGI was above 100 µM.
As for `CCCCN1C(=O)CC2[C@@H]3CCc4cc(OC)ccc4C3CC[C@]2(C)C1=O` (stereo partly drawn), the TGI was above 10 µM.
On to `Cc1nc(SCC(N)=O)c2sc(=S)n(-c3ccccc3)c2n1`, for which the TGI is above 10 µM.
On the same count and under the same terms, to `COc1cc(-c2oc3ccccc3c(=O)c2O)cc(OC)c1OC` belongs above 30.5 µM.
With `CSc1ccc(/C=C2\CNC/C(=C\c3ccc(SC)cc3)C2=O)cc1`, the GI50 is 29.1 µg/mL; the TGI is > 371 µM and 78.8 µg/mL.
On to `C/C(=N\O)c1ccc(Nc2cc(-n3nnc4ccccc43)nc3ccccc23)cc1`, for which the GI50 was 2.75 µM and the TGI is 30.3 µM.
Taken in the same sequence, the figures for `C[C@]12CC[C@@H]3c4ccc(O)c([N+](=O)[O-])c4CC[C@H]3[C@@H]1CC[C@@H]2NS(=O)(=O)c1ccc(C(F)(F)F)cc1` were 2.34 µM and 7.95 µM.
As to `Clc1ccc(COC(Cn2ccnc2)c2ccc(Cl)cc2Cl)cc1` (stereo not drawn), the GI50 was 3.22 µM; the TGI was 14.1 µM and 23.7 µM and 21.1 µM.
For `CC[C@H](C)[C@H](NC(=O)c1cnccn1)C(=O)N(C)[C@H](C[C@@H](OC(C)=O)c1nc(C(=O)N[C@@H](Cc2ccccc2)C[C@H](C)C(=O)OC)cs1)C(C)C`, the GI50 was 1.15 µM and the TGI was above 33.3 µM.
On to `CC(C)n1c(/C=C/[C@@H](O)C[C@@H](O)CC(=O)O)c(-c2ccc(F)cc2)c2ccccc21`, for which the GI50 is 13.8 µM and 13.4 µM; the TGI is above 100 µM.
Consider `CCOc1ccc(NCC2CC/C(=C\C=C\c3ccccc3)C2=O)cc1` (stereo not drawn), for which the TGI was above 100 µM.

For a further assay, the system named is HOP-62 NSCLC. In words: NCI tumour cell line growth inhibition, 48 h.
Consider `Cc1ccc(C(=O)Nc2ccc(CN3CCN(C)CC3)c(C(F)(F)F)c2)cc1C#Cc1cnc(N)c2ccc(F)cc12`, for which the GI50 was 0.753 µM and the TGI was 3.44 µM.
`CC1(C)CCC(C)(C)c2cc(C(=O)Nc3ccc(C(=O)O)cc3)ccc21` yielded a TGI of 37.5 µM.
Consider `CC1=C(C(=O)NC2CCCCC2)CC(C(=O)NC2CCCCC2)=C(C)N1`, for which the TGI was above 100 µM.
On to `Cn1cc(C2=C(c3cn(C)c4ccc(N)cc34)C(=O)NC2=O)c2ccccc21`, for which the GI50 is 9.59 µM and the TGI was above 25 µM.
The matching figures for `S=C(N/N=C/c1cc(Cl)cc(Cl)c1)NC12CC3CC(CC(C3)C1)C2`: 2.43 µM and 5.93 µM.
The compound `CCCCN1C(=O)CC2[C@@H]3CCc4cc(OC)ccc4C3CC[C@]2(C)C1=O` (stereo partly drawn) showed a TGI above 10 µM.
On the same count and under the same terms, the figure for `Cc1nc(SCC(N)=O)c2sc(=S)n(-c3ccccc3)c2n1` is above 10 µM; for `COc1cc(-c2oc3ccccc3c(=O)c2O)cc(OC)c1OC` it is 71.1 µM.
For the compound `CSc1ccc(/C=C2\CNC/C(=C\c3ccc(SC)cc3)C2=O)cc1`, the GI50 was 14 µM and 50.2 µg/mL; the TGI was 59.3 µM and 131 µg/mL.
On to `C/C(=N\O)c1ccc(Nc2cc(-n3nnc4ccccc43)nc3ccccc23)cc1`, for which the GI50 was 6.14 µM and the TGI is 21.4 µM.
Consider `C[C@]12CC[C@@H]3c4ccc(O)c([N+](=O)[O-])c4CC[C@H]3[C@@H]1CC[C@@H]2NS(=O)(=O)c1ccc(C(F)(F)F)cc1`, for which the GI50 is 1.83 µM and the TGI was 3.58 µM.
On to `Clc1ccc(COC(Cn2ccnc2)c2ccc(Cl)cc2Cl)cc1` (stereo not drawn), for which the GI50 is 3.02 µM; the TGI was 13.6 µM and 26.8 µM and 35.6 µM.
With `CC[C@H](C)[C@H](NC(=O)c1cnccn1)C(=O)N(C)[C@H](C[C@@H](OC(C)=O)c1nc(C(=O)N[C@@H](Cc2ccccc2)C[C@H](C)C(=O)OC)cs1)C(C)C`, the GI50 is 1.88 µM and the TGI was above 33.3 µM.
As for `CC(C)n1c(/C=C/[C@@H](O)C[C@@H](O)CC(=O)O)c(-c2ccc(F)cc2)c2ccccc21`, the GI50 is 11.4 µM and 13 µM; the TGI is above 100 µM.
As for `CCOc1ccc(NCC2CC/C(=C\C=C\c3ccccc3)C2=O)cc1` (stereo not drawn), the TGI was above 62 µM.
